Experimental data taken from patent EP4671247A1, “SUBSTITUTED PYRAZOLOPYRIMIDINE COMPOUND AND PHARMACEUTICAL USE THEREOF” (Japan Tobacco Inc., priority 2023, dated 2024).
Read-outs that look alike come from different tables or passages of the source.

Biological target: T1, NLRP3 inflammasome (Homo sapiens, UniProt Q96P20)
T1 construct: host or cells: THP1-Null cells (PMA-differentiated, LPS-primed, nigericin-stimulated)
Experiment: Evaluation of NLRP3 inflammasome inhibitory activity (inhibition of IL-1β production in LPS/Nigericin-stimulated THP1-Null cells, AlphaLISA)
Assay type: cell-based
Conditions: for IC50: PMA, 1 µg/mL Lipopolysaccharides 3 hours, Nigericin 7.5 µmol/L 1.5 hours
Method: The NLRP3 inflammasome inhibitory activity of test compounds were evaluated on the basis of the inhibitory activity of the IL-1β production in THP1-Null cells (Product Number: thp-null, InvivoGen).
The supernatant of the culture was removed, and thereto was added media for assay (25 µL/well) containing 1 µg/mL Lipopolysaccharides (Product Number: L2654, Sigma-Aldrich (registered trademark)). […] The supernatant of the culture was removed. […] A solution containing a test compound (20 µL/well) was added to test compound-setting wells. […] The supernatant of the culture was cryonically stored (set at -20°C) until measurement of IL-1β.
The amount of IL-1β in the culture supernatant was quantitated with AlphaLISA (registered trademark) Human IL-1β Detection Kit (Product Number: AL220C, Perkin Elmer). Fluorescence intensity was measured with a microplate reader EnSpier (Model number: 2300-00J, Perkin Elmer) or EnSight (Model number: HH34000000, Perkin Elmer) according to procedure manuals attached thereto. Inhibition rates of the test compound-setting wells were calculated on the basis of 100% for the blank-setting wells and 0% for the control-setting wells.

[1] = IL-1β production in THP1-Null cells
[2] = IL-1β production in THP1-Null cells, read-out: IC50
[3] = IC50, IL-1β production in THP1-Null cells

T1 sequence (Q96P20 whole entry): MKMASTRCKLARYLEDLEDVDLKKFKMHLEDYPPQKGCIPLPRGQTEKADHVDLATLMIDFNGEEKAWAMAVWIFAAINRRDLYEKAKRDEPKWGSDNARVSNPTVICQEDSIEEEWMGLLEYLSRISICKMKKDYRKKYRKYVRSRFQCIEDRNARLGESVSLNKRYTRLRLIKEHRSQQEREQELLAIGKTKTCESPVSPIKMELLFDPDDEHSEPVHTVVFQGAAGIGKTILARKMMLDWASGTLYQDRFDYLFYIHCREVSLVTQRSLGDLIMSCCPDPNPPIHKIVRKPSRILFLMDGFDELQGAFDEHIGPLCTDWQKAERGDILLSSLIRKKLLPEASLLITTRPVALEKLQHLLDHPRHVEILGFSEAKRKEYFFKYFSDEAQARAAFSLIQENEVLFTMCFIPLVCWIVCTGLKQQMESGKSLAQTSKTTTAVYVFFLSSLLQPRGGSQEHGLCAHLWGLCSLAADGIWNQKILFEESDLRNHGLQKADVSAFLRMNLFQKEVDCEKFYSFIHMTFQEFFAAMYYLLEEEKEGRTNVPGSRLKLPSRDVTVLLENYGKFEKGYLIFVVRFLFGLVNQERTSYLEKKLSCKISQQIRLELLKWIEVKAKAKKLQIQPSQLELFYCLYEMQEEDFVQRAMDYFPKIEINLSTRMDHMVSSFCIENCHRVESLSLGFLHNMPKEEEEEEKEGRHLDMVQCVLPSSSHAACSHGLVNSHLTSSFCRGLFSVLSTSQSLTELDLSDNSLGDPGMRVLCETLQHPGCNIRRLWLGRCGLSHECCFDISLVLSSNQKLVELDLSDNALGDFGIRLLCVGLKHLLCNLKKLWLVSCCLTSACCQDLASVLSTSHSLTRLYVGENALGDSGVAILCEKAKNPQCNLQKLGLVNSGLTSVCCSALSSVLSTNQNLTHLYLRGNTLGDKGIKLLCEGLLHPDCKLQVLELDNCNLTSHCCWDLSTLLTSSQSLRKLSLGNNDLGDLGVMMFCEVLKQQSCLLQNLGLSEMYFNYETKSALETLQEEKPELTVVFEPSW

Cc1cc(C2CC2)cc(C)c1-n1cc2c(=O)[nH]c(C(C)O)nc2n1 (racemic) [Example 123] was tested, and the IC50 [1] was 23 nM.
Compound Cc1ccc(-n2cc3c(=O)n(CC(=O)O)c(C)nc3n2)c(C)c1 [Example 15] has an inhibition at 2.4 µM (test compound at 2.4 µM, IL-1β production in THP1-Null cells) of -3%.
For Cc1cc(C2CC2)cc(C)c1-n1cc2c(=O)[nH]c(C#N)nc2n1 [Example 199], the IC50 [2] was 240 nM.
Cc1cc(OC(F)F)cc(C)c1-n1cc2c(=O)[nH]c(C3CCOCCO3)nc2n1 (single isomer, unassigned) [Example 194] was tested, and the IC50 [1] was 100 nM.
With Cc1cc(C2CC2)cc(C)c1-n1cc2c(=O)[nH]c(C(C)F)nc2n1 (racemic) [Example 128] the IC50 [2] was 44 nM.
Cc1cc(Br)cc(C)c1-n1cc2c(=O)[nH]c(C3CC3F)nc2n1 (stereo not drawn) [Example 92] showed an IC50 [1] of 7 nM.
Cc1cc(C2CC2)cc(C)c1-n1cc2c(=O)[nH]c(C3CCOC3)nc2n1 (single isomer, unassigned) [Example 51] gave an IC50 [1] of 24 nM.
With Cc1cc(Br)cc(C)c1-n1cc2c(=O)[nH]c(C3CCCCC3)nc2n1 [Example 71] the IC50 [2] was 11 nM.
For Cc1ccc(-n2cc3c(=O)[nH]c(C4CC4)nc3n2)c(C)c1 [Example 3], the IC50 [2] was 240 nM.
Cc1cc(OC(F)F)cc(C)c1-n1cc2c(=O)[nH]c(C3(F)CCOCC3)nc2n1 [Example 136] was tested, and the IC50 [2] was 49 nM.
Cc1cc(C2CC2)cc(C)c1-n1cc2c(=O)[nH]c(C(=O)NC3COC3)nc2n1 [Example 201] gave an IC50 [2] of 740 nM.
In the case of Cc1cc(Br)cc(C)c1-n1cc2c(=O)[nH]c(C(O)C3CC3)nc2n1 (racemic) [Example 140], the IC50 [2] is reported as 46 nM.
In the case of Cc1cc(C2CC2)cc(C)c1-n1cc2c(=O)[nH]c(COCC3CCOCC3)nc2n1 [Example 47], the IC50 [2] is reported as 180 nM.
CNC(=O)c1nc2nn(-c3c(C)cc(C(C)(F)F)cc3C)cc2c(=O)[nH]1 [Example 207] was tested, and the IC50 [2] was 270 nM.
Cc1cc(OC(F)F)cc(C)c1-n1cc2c(=O)[nH]c(C(C)O)nc2n1 (racemic) [Example 141, (RS)-2-{4-(difluoromethoxy)-2,6-dimethylphenyl}-6-(1-hydroxyethyl)-2,5-dihydro-4H-pyrazolo[3,4-d]pyrimidin-4-one] was tested, and the IC50 [2] was 61 nM.
CCc1nc2nn(-c3c(C)cc(C(C)(F)F)cc3C)cc2c(=O)[nH]1 [Example 181] gave an IC50 [2] of 18 nM.
With Cc1cc(Br)cc(C)c1-n1cc2c(=O)[nH]c(CN3CCCCC3)nc2n1 [Example 112] the IC50 [2] was 140 nM.
In the case of Cc1cc(OC(F)F)cc(C)c1-n1cc2c(=O)[nH]c(C3CC(C)OC(C)C3)nc2n1 (stereo not drawn) [Example 89], the IC50 [2] is reported as 450 nM.
Cc1cc(C2CC2)cc(C)c1-n1cc2c(=O)[nH]c(C34CC(F)(C3)C4)nc2n1 [Example 49] showed an IC50 [2] of 24 nM.
In the case of Cc1cc(C2CC2)cc(F)c1-n1cc2c(=O)[nH]c(C3(F)CCOCC3)nc2n1 [Example 110], the IC50 [2] is reported as 19 nM.
In the case of Cc1cc(Br)cc(C)c1-n1cc2c(=O)[nH]c(C3CC(F)(F)CCO3)nc2n1 (racemic) [Example 184], the IC50 [2] is reported as 51 nM.
Cc1c(-n2cc3c(=O)[nH]c(C4CCCC4)nc3n2)c(C(F)(F)F)nn1C(C)C [Example 65] gave an IC50 [2] of 300 nM.
Cc1c(-n2cc3c(=O)[nH]c(C4CC4)nc3n2)c(C(F)(F)F)nn1C(C)C [Example 61] gave an IC50 [2] of 460 nM.
In the case of Cc1cc(C2CC2)cc(C)c1-n1cc2c(=O)[nH]c(C(=O)N(C)C)nc2n1 [Example 195], the IC50 [2] is reported as 180 nM.
Work on Cc1cc(Br)cc(C)c1-n1cc2c(=O)[nH]c(CC(O)C(F)(F)F)nc2n1 (racemic) [Example 126] yielded an IC50 [2] of 24 nM.
Compound Cc1cc(Br)cc(C)c1-n1cc2c(=O)[nH]c(CN3CCCC3=O)nc2n1 [Example 66] has an IC50 [2] of 430 nM.
With Cc1cc(C2CC2)cc(C)c1-n1cc2c(=O)[nH]c(C(C)O)nc2n1 (single isomer, unassigned) [Example 157] the IC50 [1] was 340 nM.
Cc1cc(C(C)(F)F)cc(C)c1-n1cc2c(=O)[nH]c([C@H](C)O)nc2n1 (single isomer, unassigned) [Example 155] was tested, and the IC50 [2] was 610 nM.
Cc1cc(OC(F)F)cc(C)c1-n1cc2c(=O)[nH]c(C3CCOC3)nc2n1 (racemic) [Example 63] gave an IC50 [2] of 45 nM.
In the case of CCc1nc2nn(-c3c(C)cc(C4(F)CC4)cc3C)cc2c(=O)[nH]1 [Example 192], the IC50 [2] is reported as 20 nM.
COc1nc(C)nc2nn(-c3c(C)cc(Br)cc3C)cc12 [Example 210, 2-(4-bromo-2,6-dimethylphenyl)-4-methoxy-6-methyl-2H-pyrazolo[3,4-d]pyrimidine] showed an inhibition at 24 µM (test compound at 24 µM, IL-1β production in THP1-Null cells) of 9%.
With Cc1cc(Br)cc(C)c1-n1cc2c(=O)[nH]c(C(O)C(F)F)nc2n1 (racemic) [Example 139] the IC50 [2] was 36 nM.
Compound Cc1cc(OC(F)F)cc(C)c1-n1cc2c(=O)[nH]c(COC(F)F)nc2n1 [Example 148] has an IC50 [2] of 61 nM.
Compound Cc1cc(Br)cc(C)c1-n1cc2c(=O)[nH]c(C34CC(C3)C4)nc2n1 [Example 60] has an IC50 [3] of 60 nM.
Work on Cc1cc(C(C)(F)F)cc(C)c1-n1cc2c(=O)[nH]c(C3CCOCCO3)nc2n1 (racemic) [Example 168] yielded an IC50 [1] of 74 nM.
For Cc1cc(C2CC2)cc(C)c1-n1cc2c(=O)[nH]c(C3(F)CCC3)nc2n1 [Example 69], the IC50 [2] was 67 nM.
Cc1cc(OC(F)F)cc(C)c1-n1cc2c(=O)[nH]c(C3CCOCC3F)nc2n1 (single isomer, unassigned) [Example 176] was tested, and the IC50 [1] was 75 nM.
Cc1cc(C(C)(F)F)cc(C)c1-n1cc2c(=O)[nH]c([C@@H]3C[C@H]3F)nc2n1 (single isomer, unassigned) [Example 146] showed an IC50 [2] of 15 nM.
For Cc1cc(C(C)(F)F)cc(C)c1-n1cc2c(=O)[nH]c(C3(F)CCOC3)nc2n1 (single isomer, unassigned) [Example 130], the IC50 [1] was 240 nM.
With Cc1cc(C(C)(F)F)cc(C)c1-n1cc2c(=O)[nH]c(C3CC3(F)F)nc2n1 (racemic) [Example 125] the IC50 [2] was 24 nM.
Cc1cc(C(C)(F)F)cc(C)c1-n1cc2c(=O)[nH]c([C@H]3C[C@@H]3F)nc2n1 (single isomer, unassigned) [Example 147] showed an IC50 [2] of 24 nM.
Cc1cc(Br)cc(C)c1-n1cc2c(=O)[nH]c(COCCO)nc2n1 [Example 96] was tested, and the IC50 [2] was 270 nM.
COCCc1nc2nn(-c3ccc(C)cc3C)cc2c(=O)[nH]1 [Example 9] gave an IC50 [2] of 1100 nM.
Work on Cc1cc(Br)cc(C)c1-n1cc2c(=O)[nH]c(C3CC(F)(F)CO3)nc2n1 (racemic) [Example 189] yielded an IC50 [2] of 71 nM.
In the case of Cc1cc(C2CC2)cc(C)c1-n1cc2c(=O)[nH]c(C(O)C(F)F)nc2n1 (racemic) [Example 158], the IC50 [1] is reported as 26 nM.
With COC(C)c1nc2nn(-c3c(C)cc(C4CC4)cc3C)cc2c(=O)[nH]1 (racemic) [Example 41] the IC50 [2] was 93 nM.
Work on Cc1cc(Br)cc(C)c1-n1cc2c(=O)[nH]c(C3COCCO3)nc2n1 (racemic) [Example 28] yielded an IC50 [2] of 190 nM.
For Cc1cc(C(C)(F)F)cc(C)c1-n1cc2c(=O)[nH]c(CCO)nc2n1 [Example 208], the IC50 [2] was 66 nM.
Cc1cc(OC(F)F)cc(C)c1-n1cc2c(=O)[nH]c(C3CCOCCO3)nc2n1 (single isomer, unassigned) [Example 193] showed an IC50 [1] of 27 nM.
Compound Cc1cc(C(C)(F)F)cc(C)c1-n1cc2c(=O)[nH]c(C3CC3)nc2n1 [Example 80] has an IC50 [2] of 29 nM.
Cc1cc(OC(F)F)cc(C)c1-n1cc2c(=O)[nH]c(C3COCC3F)nc2n1 (single isomer, unassigned) [Example 183] was tested, and the IC50 [1] was 35 nM.
Cc1cc(Br)cc(C)c1-n1cc2c(=O)[nH]c(CC3COCCO3)nc2n1 (racemic) [Example 113] gave an IC50 [2] of 140 nM.
Compound Cc1cc(Br)cc(C)c1-n1cc2c(=O)[nH]c(C3CC4CCN3CC4)nc2n1 (racemic) [Example 100] has an IC50 [3] of 54 nM.
COCc1nc2nn(-c3c(C)cc(C4CC4)cc3C)cc2c(=O)[nH]1 [Example 43] gave an IC50 [2] of 42 nM.
Work on Cc1cc(Br)cc(C)c1-n1cc2c(=O)[nH]c(C3CCOCC3O)nc2n1 (single isomer, unassigned) [Example 104] yielded an IC50 [2] of 15 nM.
For Cc1cc(C(C)(F)F)cc(C)c1-n1cc2c(=O)[nH]c(C3(F)CCOCC3)nc2n1 [Example 107], the IC50 [2] was 15 nM.
In the case of Cc1cc(Br)cc(C)c1-n1cc2c(=O)[nH]c(C3(F)CCOCC3)nc2n1 [Example 97], the IC50 [2] is reported as 24 nM.
In the case of Cc1cc(OC(F)F)cc(C)c1-n1cc2c(=O)[nH]c(C3CCOCC3F)nc2n1 (single isomer, unassigned) [Example 177], the IC50 [1] is reported as 24 nM.
Cc1cc(Br)cc(C)c1-n1cc2c(=O)[nH]c(C3CC3C(N)=O)nc2n1 (racemic) [Example 150] was tested, and the IC50 [2] was 18 nM.
In the case of Cc1cc(C2CC2)cc(F)c1-n1cc2c(=O)[nH]c(C3CC3)nc2n1 [Example 20], the IC50 [2] is reported as 13 nM.
Work on Cc1cc(Br)cc(C)c1-n1cc2c(=O)[nH]c(CC3CC3)nc2n1 [Example 161] yielded an IC50 [2] of 10 nM.
In the case of Cc1cc(C(C)(C)F)cc(C)c1-n1cc2c(=O)[nH]c(C3CC3)nc2n1 [Example 85], the IC50 [3] is reported as 29 nM.
Cc1nc2nn(-c3c(C)cc(Br)cc3C)cc2c(=O)[nH]1 [Example 18] was tested, and the IC50 [3] was 220 nM.
In the case of Cc1cc(C2CC2)cc(C)c1-n1cc2c(=O)[nH]c(C3CC4CCN3CC4)nc2n1 (racemic) [Example 119], the IC50 [3] is reported as 31 nM.
With Cc1cc(Br)cc(C)c1-n1cc2c(=O)[nH]c([C@@H]3CCOCCO3)nc2n1 [Example 186] the IC50 [2] was 87 nM.
For CCC(O)c1nc2nn(-c3c(C)cc(C4CC4)cc3C)cc2c(=O)[nH]1 (racemic) [Example 134], the IC50 [2] was 24 nM.
